{"source": "patent US6667025B2", "about": "(Mitsubishi Pharma Corporation, priority 1997, dated 2003)", "key": {"[1]": {"tested_on": "cardiac allograft, WKAH donors and ACI recipients", "assay": "Heterotopic cardiac allograft survival, MHC-incompatible rat strains", "assay_type": "in vivo"}, "[2]": {"tested_on": "renal allograft, mongrel donors and beagle recipients", "assay": "Canine renal allograft survival", "assay_type": "in vivo", "settings": "5 mg/kg", "experimental": "Kidneys from mongrel donor dogs were transplanted into beagle dogs in the right iliac fossa, and the recipient dogs were then nephrectomized bilaterally. Levels of serum creatine and blood urea nitrogen were measured to monitor survival. Graft rejection was defined as the day when either serum creatine levels increased to more than 10.0 mg/dL or blood urea nitrogen levels elevated to more than 200 mg/dL. […] The survival curves are illustrated in FIG. 6."}, "[3]": {"tested_on": "IL-2 mRNA in alloantigen-stimulated splenic T cells", "assay": "IL-2 mRNA expression in allogeneic mixed lymphocyte culture (PCR)", "assay_type": "cell-based, rat", "settings": "48 hours", "experimental": "The housekeeping gene HPRT was used as an internal control in order to compare levels of IL-2 mRNA levels relative to the HPRT mRNA levels, as detailed below.\nAllogeneic mixed lymphocyte culture was carried out by using nylon-nonadherent spleen cells of F344 rat (RT1^1v1) as responder cells and the spleen cells of WKAH rat (RT1^k) pretreated with 40 μg/ml of mitomycin C for 30 min as stimulator cells. […] After culturing for 48 hours, the cells were recovered by centrifugation. The expression of IL-2 mRNA in the cells was determined by a polymerase chain reaction (PCR) method.\nTotal RNA was reverse transcribed in […] of buffer solution containing 10 mmol/L Tris-HCl (pH 8.3),50 mM KCl, 5 mM MgCl2, 1 mM each dNTP (dATP, dGTP, dTTP and dCTP), 60 U RNase inhibitor (Takara Ltd. Tokyo, Japan), 15 U avian myelobalastosis virus reverse transcriptase (Takara Ltd.) and 150 pmol random 9-mers at 30° C. for 10 min and 42° C. for 30 min. Primer sequences for IL-2 and hypoxanthine-guanine phosphoribosyltransferase (HPRT) were taken from the previous report (44).\nThe length in base pairs of the PCR products of IL-2 and HPRT are 351 and 608 bp respectively. […] Fluorescence intensity of the specific bands was visualized by fluorescence image analyzer (FLUOR IMAGER 575®, Molecular Dynamics)."}, "[4]": {"tested_on": "(LEW×BN)F1 recipients injected with LEW spleen cells", "assay": "Lethal GvHR in cyclophosphamide-pretreated recipients", "assay_type": "in vivo, rat", "experimental": "To examine the effect of FTY720 in preventing the lethal GvHR, splenic lymphocytes from LEW donor rats (1×10^8 spleen cells) were injected intravenously into cyclophosphamide-pretreated (LEW×BN)F1 recipients. Cyclophosphamide (Shionogi Co. Ltd; Osaka, Japan) was given at a 200 mg/kg dose."}, "[5]": {"tested_on": "CD3-positive T cells and CD45RA or A/B-positive B cells", "assay": "Lymphocyte contents of blood and lymphoid tissues by two color flow cytometry", "assay_type": "in vivo, rat", "experimental": "The lymphocyte contents of peripheral blood and spleen in FTY720-treated intact or allografted rats were analyzed by two color flow cytometry using anti-rat CD3 and anti-rat CD45RA or A/B monoclonal antibodies (21). Lymphocytes were stained with FITC-conjugated anti-CD3 (clone: 1F4, Caltag Laboratories, South San Fransisco, Calif.) (45) and phycoerythrin-conjugated anti-CD45RA or A/B (clone:OX-33, Pharmingen, La Jolla, Calif.) (46) monoclonal antibodies. The T cell and B cell contents were determined by two-color flow cytometry analysis using a flow cytometer (EPICS-XL; Coulter Co.).\nIn dogs and monkeys, as well as rats, oral administration with FTY720 also decreases the number of circulating lymphocytes in peripheral blood. The reduction of the number of T cells was especially remarkable. Withdrawal of FTY720 treatment recovered the number of lymphocytes in peripheral blood to the normal level within 2 weeks."}, "[6]": {"tested_on": "lymphocytes", "assay": "Numbers of lymphocytes in blood, spleen, mesenteric lymph nodes and Peyer's patches in vivo", "design": "species or system rat", "settings": "24 hours", "experimental": "FTY720 at 0.1 and 1 mg/kg were administered orally to 6 week-old male F344 rats. At 3, 12, 24 hours after administration, peripheral blood, spleen, mesenteric lymph nodes, and Peyer's patches were removed and the lymphocyte numbers of these tissues were measured by using a flow cytometer, as known in the art (EPICS XL)."}}}
{"smiles": "CCCCCCCCc1ccc(CCC(N)(CO)CO)cc1.Cl", "note": "[FTY720, 2-amino-2[2-(4-octylphenyl)ethyl]propane-1,3-diol hydrochloride]", "values": [{"measurement": "MST of cardiac allograft", "setting": "[1]; 0.1 mg/kg for 14 days", "result": 20.0, "unit": "days"}, {"measurement": "MST of cardiac allograft", "setting": "[1]; 0.3 mg/kg for 14 days", "result": 21.0, "unit": "days"}, {"measurement": "MST of cardiac allograft", "setting": "[1]; 1 mg/kg for 14 days", "result": 25.5, "unit": "days"}, {"measurement": "MST of cardiac allograft", "setting": "[1]; 3 mg/kg for 14 days", "result": 29.5, "unit": "days"}, {"measurement": "MST of cardiac allograft", "setting": "[1]; 10 mg/kg for 14 days", "result": 58.5, "unit": "days"}, {"measurement": "long-term or indefinite cardiac graft survival", "setting": "[1]; 10 mg/kg, in three out of eight recipient rats", "result": "more than 100 days"}, {"measurement": "dose that significantly prolonged cardiac allograft survival", "setting": "[1]; vs control", "result": "≥ 0.1", "unit": "mg/kg"}, {"measurement": "MST of renal allograft", "setting": "[2]", "result": 12.0, "unit": "days"}, {"measurement": "concentration that inhibited IL-2 mRNA expression", "setting": "[3]", "result": "> 1000", "unit": "nM"}, {"measurement": "survival of recipient rats", "setting": "[4]; 0.3 mg/kg, four out of five rats, without GvHR-associated symptoms", "result": "more than 60 days"}, {"measurement": "GvHR-associated symptoms", "setting": "[4]; oral 0.1 mg/kg for 30 days", "result": "prevented the development of GvHR-associated symptoms"}, {"measurement": "MST of recipient rats", "setting": "[4]; oral 0.1 mg/kg for 30 days", "result": 50.0, "unit": "days"}, {"measurement": "number of bone marrow cells, thymocytes, polymorphonuclear cells", "setting": "[5]; data not shown", "result": "did not effect"}, {"measurement": "number of T cells and B cells in spleen, thoracic duct, peripheral blood", "setting": "[5]; oral 1 mg/kg", "result": "decrease"}, {"measurement": "numbers of T cells and B cells in mesenteric and peripheral lymph nodes", "setting": "[5]; oral 1 mg/kg", "result": "significantly increased"}, {"measurement": "time to recovery of peripheral blood lymphocytes to normal level after withdrawal", "setting": "[5]; withdrawal of FTY720 treatment", "result": "≤ 2", "unit": "weeks"}, {"measurement": "numbers of T cells and B cells in peripheral blood", "setting": "[5]; within 6 hours after oral 0.1 to 10 mg/kg", "result": "dramatically decreased"}, {"measurement": "Number of lymphocytes, Peyer's patches", "setting": "[6]; 0.1 mg/kg p.o.", "result": "551.5 ± 103.5 × 10^4 cells/tissue"}, {"measurement": "Number of lymphocytes, mesenteric lymph nodes", "setting": "[6]; 0.1 mg/kg p.o.", "result": "421.8 ± 27.4 × 10^5 cells/tissue"}, {"measurement": "Number of lymphocytes, peripheral blood", "setting": "[6]; 0.1 mg/kg p.o.", "result": "1071.9 ± 59.3", "unit": "cells/μL"}, {"measurement": "Number of lymphocytes, spleen", "setting": "[6]; 0.1 mg/kg p.o.", "result": "652.3 ± 31.2 × 10^5 cells/tissue"}, {"measurement": "Number of lymphocytes, Peyer's patches", "setting": "[6]; 1 mg/kg p.o.", "result": "628.8 ± 61.1 × 10^4 cells/tissue"}, {"measurement": "Number of lymphocytes, mesenteric lymph nodes", "setting": "[6]; 1 mg/kg p.o.", "result": "434.3 ± 33.2 × 10^5 cells/tissue"}, {"measurement": "Number of lymphocytes, peripheral blood", "setting": "[6]; 1 mg/kg p.o.", "result": "667.2 ± 199.8", "unit": "cells/μL"}, {"measurement": "Number of lymphocytes, spleen", "setting": "[6]; 1 mg/kg p.o.", "result": "538.0 ± 74.1 × 10^5 cells/tissue"}]}
